This is an account of results in the OligoGym collection.

Values joined by “and” are separate entries in the source; they are usually repeats but may differ in a detail not shown here. Equal values may be shown once. HELM strings list units from the 5' end as sugar, base in round brackets, then linkage (d deoxyribose, r ribose, m 2'-O-methyl, p phosphodiester). Methylation of C is not given here. [moe] = 2'-O-(2-methoxyethyl) (MOE); [cEt] = constrained ethyl (cEt); [sp] = phosphorothioate linkage

The target in the data set is HBV. The conditions noted are these: ASO.

Consider “RNA1{[moe](G)[sp].[moe](A)[sp].[moe](A)[sp].d(G)[sp].d(C)[sp].d(G)[sp].d(A)[sp].d(A)[sp].d(G)[sp].d(T)[sp].d(G)[sp].d(C)[sp].d(A)[sp].[cEt](C)[sp].[cEt](A)[sp].[cEt](C)}$$$$V2.0”, for which the target mRNA inhibition (HepG2, 0.07 µM) is 67%.

Take “RNA1{[moe](T)[sp].[moe](T)[sp].[moe](A)[sp].[moe](T)[sp].d(G)[sp].d(C)[sp].d(C)[sp].d(T)[sp].d(A)[sp].d(C)[sp].d(A)[sp].d(G)[sp].d(C)[sp].[moe](C)[sp].[moe](T)[sp].[moe](C)}$$$$V2.0”: the target mRNA inhibition (HepG2, 0.07 µM) was 42% and 46%.

With “RNA1{[moe](G)[sp].[moe](G)[sp].[moe](C)[sp].[moe](A)[sp].[moe](T)[sp].d(A)[sp].d(G)[sp].d(C)[sp].d(A)[sp].d(G)[sp].d(C)[sp].d(A)[sp].d(G)[sp].d(G)[sp].[moe](A)[sp].[moe](T)}$$$$V2.0”, where the note is “HepG2, 0.07 µM”, the target mRNA inhibition was 55% and 41%.

In the case of “RNA1{[moe](C)[sp].[moe](C)[sp].[moe](G)[sp].d(C)[sp].d(A)[sp].d(G)[sp].d(T)[sp].d(A)[sp].d(T)[sp].d(G)[sp].d(G)[sp].d(A)[sp].[moe](T)[sp].[moe](C)[sp].[moe](G)[sp].[moe](G)[sp].[moe](C)}$$$$V2.0”, for the setting “HepG2, 0.07 µM”, the target mRNA inhibition was 86% and 73%.

For “RNA1{[moe](G)[sp].[moe](A)[sp].d(G)[sp].d(G)[sp].d(T)[sp].d(G)[sp].d(A)[sp].d(A)[sp].d(G)[sp].d(C)[sp].d(G)[sp].[moe](A)[sp].[moe](A)[sp].[moe](G)[sp].[moe](T)[sp].[moe](G)}$$$$V2.0”, the target mRNA inhibition (HepG2, 0.07 µM) is 51% and 46%.

On to “RNA1{[moe](C)[sp].[moe](A)[sp].[moe](C)[sp].[moe](T)[sp].[moe](A)[sp].d(G)[sp].d(T)[sp].d(A)[sp].d(A)[sp].d(A)[sp].d(C)[sp].d(T)[sp].d(G)[sp].d(A)[sp].[moe](G)[sp].[moe](C)}$$$$V2.0”, for which the target mRNA inhibition (HepG2, 0.07 µM) was 59% and 60%.

On to “RNA1{[moe](G)[sp].[moe](A)[sp].d(A)[sp].d(G)[sp].d(T)[sp].d(C)[sp].d(C)[sp].d(A)[sp].d(C)[sp].d(C)[sp].d(A)[sp].[moe](C)[sp].[moe](G)[sp].[moe](A)[sp].[moe](G)[sp].[moe](T)[sp].[moe](C)}$$$$V2.0”, for which the target mRNA inhibition (HepG2, 0.07 µM) is 66% and 49%.

Where the note is “HepG2, 0.07 µM”, “RNA1{[moe](G)[sp].[moe](A)[sp].[moe](A)[sp].[moe](G)[sp].[moe](T)[sp].[moe](C)[sp].d(C)[sp].d(A)[sp].d(C)[sp].d(C)[sp].d(A)[sp].d(C)[sp].d(G)[sp].d(A)[sp].d(G)[sp].[moe](T)[sp].[moe](C)}$$$$V2.0” yielded a target mRNA inhibition of 42%.

On to “RNA1{[moe](G)[sp].[cEt](A)[sp].[cEt](T)[sp].d(G)[sp].d(A)[sp].d(G)[sp].d(G)[sp].d(C)[sp].d(A)[sp].d(T)[sp].d(A)[sp].d(G)[sp].d(C)[sp].[cEt](A)[sp].[cEt](G)[sp].[moe](C)}$$$$V2.0”, for which the target mRNA inhibition (HepG2, 0.07 µM) is 60% and 59%.

Take “RNA1{[moe](C)[sp].[moe](C)[sp].[moe](A)[sp].[moe](A)[sp].[moe](T)[sp].[moe](T)[sp].d(T)[sp].d(A)[sp].d(T)[sp].d(G)[sp].d(C)[sp].d(C)[sp].d(T)[sp].d(A)[sp].d(C)[sp].[moe](A)[sp].[moe](G)}$$$$V2.0”: the target mRNA inhibition (HepG2, 0.07 µM) was 13% and 20%.

“RNA1{[moe](G)[sp].[moe](G)[sp].[moe](A)[sp].[moe](G)[sp].[moe](T)[sp].[moe](T)[sp].d(C)[sp].d(C)[sp].d(G)[sp].d(C)[sp].d(A)[sp].d(G)[sp].d(T)[sp].d(A)[sp].d(T)[sp].[moe](G)[sp].[moe](G)}$$$$V2.0”: the target mRNA inhibition reads like this: (HepG2, 0.0092593 µM) 2%; (HepG2, 0.0277778 µM) 25%; (HepG2, 0.0833333 µM) 55%; (HepG2, 0.25 µM) 74%.

“RNA1{[moe](A)[sp].[moe](C)[sp].[moe](T)[sp].d(G)[sp].d(G)[sp].d(A)[sp].d(G)[sp].d(C)[sp].d(C)[sp].d(A)[sp].d(C)[sp].d(C)[sp].[moe](A)[sp].[moe](G)[sp].[moe](C)[sp].[moe](A)}$$$$V2.0”: the target mRNA inhibition by setting is: (HepG2, 0.0092593 µM) 4%; (HepG2, 0.0277778 µM) 23%; (HepG2, 0.07 µM) 53% and 72%; (HepG2, 0.0833333 µM) 46%; (HepG2, 0.25 µM) 56%.

For “RNA1{[moe](G)[sp].[moe](G)[sp].d(A)[sp].d(G)[sp].d(T)[sp].d(T)[sp].d(C)[sp].d(C)[sp].d(G)[sp].d(C)[sp].d(A)[sp].[moe](G)[sp].[moe](T)[sp].[moe](A)[sp].[moe](T)[sp].[moe](G)}$$$$V2.0”, the target mRNA inhibition (HepG2, 0.07 µM) is 67% and 45%.

In the case of “RNA1{[moe](A)[sp].[moe](A)[sp].[moe](G)[sp].[moe](A)[sp].[moe](T)[sp].d(G)[sp].d(A)[sp].d(G)[sp].d(G)[sp].d(C)[sp].d(A)[sp].d(T)[sp].d(A)[sp].d(G)[sp].[moe](C)[sp].[moe](A)[sp].[moe](G)}$$$$V2.0”, the target mRNA inhibition (HepG2, 0.07 µM) is 26% and 34%.

On to “RNA1{[moe](G)[sp].[moe](A)[sp].[moe](A)[sp].d(C)[sp].d(C)[sp].d(A)[sp].d(C)[sp].d(T)[sp].d(G)[sp].d(A)[sp].d(A)[sp].d(C)[sp].[moe](A)[sp].[moe](A)[sp].[moe](A)[sp].[moe](T)}$$$$V2.0”, for which the target mRNA inhibition (HepG2, 0.07 µM) was 46% and 42%.

“RNA1{[moe](T)[sp].[cEt](G)[sp].[cEt](A)[sp].d(G)[sp].d(G)[sp].d(C)[sp].d(A)[sp].d(T)[sp].d(A)[sp].d(G)[sp].d(C)[sp].d(A)[sp].d(G)[sp].[cEt](C)[sp].[cEt](A)[sp].[moe](G)}$$$$V2.0”: the target mRNA inhibition (HepG2, 0.07 µM) is 68% and 61%.

“RNA1{[moe](A)[sp].[moe](G)[sp].d(A)[sp].d(A)[sp].d(G)[sp].d(T)[sp].d(C)[sp].d(C)[sp].d(A)[sp].d(C)[sp].d(C)[sp].[moe](A)[sp].[moe](C)[sp].[moe](G)[sp].[moe](A)[sp].[moe](G)[sp].[moe](T)}$$$$V2.0”: the target mRNA inhibition (HepG2, 0.07 µM) was 62% and 49%.

For the substance “RNA1{[moe](A)[sp].[cEt](G)[sp].d(G)[sp].d(A)[sp].d(G)[sp].d(T)[sp].d(T)[sp].d(C)[sp].d(C)[sp].d(G)[sp].d(C)[sp].d(A)[sp].[cEt](G)[sp].[moe](T)[sp].[cEt](A)[sp].[moe](T)}$$$$V2.0”, the target mRNA inhibition (HepG2, 0.0092593 µM) amounted to 12%; the target mRNA inhibition (HepG2, 0.0277778 µM) is 40%; the target mRNA inhibition (HepG2, 0.07 µM) is 74% and 87%; the target mRNA inhibition (HepG2, 0.0833333 µM) came out at 62%; the target mRNA inhibition (HepG2, 0.25 µM) turned out to be 82%.

As for “RNA1{[moe](A)[sp].[moe](G)[sp].[moe](T)[sp].[moe](T)[sp].d(C)[sp].d(C)[sp].d(G)[sp].d(C)[sp].d(A)[sp].d(G)[sp].d(T)[sp].d(A)[sp].d(T)[sp].[moe](G)[sp].[moe](G)[sp].[moe](A)[sp].[moe](T)}$$$$V2.0”, under “HepG2, 0.07 µM”, the target mRNA inhibition was 43% and 52%.

In the case of “RNA1{[moe](C)[sp].[cEt](G)[sp].[cEt](A)[sp].d(A)[sp].d(C)[sp].d(C)[sp].d(A)[sp].d(C)[sp].d(T)[sp].d(G)[sp].d(A)[sp].d(A)[sp].d(C)[sp].[cEt](A)[sp].[cEt](A)[sp].[moe](A)}$$$$V2.0”, the target mRNA inhibition (HepG2, 0.07 µM) was 64% and 48%.

For the substance “RNA1{[moe](A)[sp].[moe](T)[sp].[moe](T)[sp].d(T)[sp].d(A)[sp].d(T)[sp].d(G)[sp].d(C)[sp].d(C)[sp].d(T)[sp].d(A)[sp].d(C)[sp].[moe](A)[sp].[moe](G)[sp].[moe](C)[sp].[moe](C)[sp].[moe](T)}$$$$V2.0”, the target mRNA inhibition (HepG2, 0.07 µM) was 58% and 50%.

As to “RNA1{[moe](T)[sp].[moe](T)[sp].d(T)[sp].d(A)[sp].d(T)[sp].d(G)[sp].d(C)[sp].d(C)[sp].d(T)[sp].d(A)[sp].d(C)[sp].[moe](A)[sp].[moe](G)[sp].[moe](C)[sp].[moe](C)[sp].[moe](T)[sp].[moe](C)}$$$$V2.0”, under “HepG2, 0.07 µM”, the target mRNA inhibition is 64% and 54%.

For the substance “RNA1{[moe](G)[sp].[moe](A)[sp].[moe](A)[sp].d(C)[sp].d(T)[sp].d(G)[sp].d(G)[sp].d(A)[sp].d(G)[sp].d(C)[sp].d(C)[sp].d(A)[sp].d(C)[sp].[cEt](C)[sp].[cEt](A)[sp].[cEt](G)}$$$$V2.0”, the target mRNA inhibition (HepG2, 0.07 µM) is 59% and 58%.

On to “RNA1{[moe](G)[sp].[moe](A)[sp].[moe](G)[sp].d(A)[sp].d(A)[sp].d(G)[sp].d(T)[sp].d(C)[sp].d(C)[sp].d(A)[sp].d(C)[sp].d(C)[sp].d(A)[sp].[cEt](C)[sp].[cEt](G)[sp].[cEt](A)}$$$$V2.0”, for which the target mRNA inhibition (HepG2, 0.07 µM) was 60% and 71%.

Consider “RNA1{[moe](C)[sp].[cEt](G)[sp].d(G)[sp].d(G)[sp].d(C)[sp].d(A)[sp].d(A)[sp].d(C)[sp].d(A)[sp].d(T)[sp].d(A)[sp].d(C)[sp].[cEt](C)[sp].[moe](T)[sp].[cEt](T)[sp].[moe](G)}$$$$V2.0”, for which the target mRNA inhibition (HepG2, 0.07 µM) was 72% and 65%.

With “RNA1{[moe](A)[sp].[cEt](A)[sp].[cEt](C)[sp].d(C)[sp].d(A)[sp].d(C)[sp].d(T)[sp].d(G)[sp].d(A)[sp].d(A)[sp].d(C)[sp].d(A)[sp].d(A)[sp].[cEt](A)[sp].[cEt](T)[sp].[moe](G)}$$$$V2.0”, the target mRNA inhibition (HepG2, 0.07 µM) was 64% and 51%.

As to “RNA1{[moe](G)[sp].[moe](T)[sp].d(T)[sp].d(C)[sp].d(C)[sp].d(G)[sp].d(C)[sp].d(A)[sp].d(G)[sp].d(T)[sp].d(A)[sp].[moe](T)[sp].[moe](G)[sp].[moe](G)[sp].[moe](A)[sp].[moe](T)[sp].[moe](C)}$$$$V2.0”, the target mRNA inhibition (HepG2, 0.07 µM) was 45% and 58%.

Take “RNA1{[moe](G)[sp].[cEt](G)[sp].[cEt](C)[sp].d(A)[sp].d(T)[sp].d(A)[sp].d(G)[sp].d(C)[sp].d(A)[sp].d(G)[sp].d(C)[sp].d(A)[sp].d(G)[sp].[cEt](G)[sp].[cEt](A)[sp].[moe](T)}$$$$V2.0”: the target mRNA inhibition (HepG2, 0.07 µM) was 75% and 64%.

Turning to “RNA1{[moe](C)[sp].[cEt](G)[sp].[cEt](C)[sp].d(A)[sp].d(G)[sp].d(T)[sp].d(A)[sp].d(T)[sp].d(G)[sp].d(G)[sp].d(A)[sp].d(T)[sp].d(C)[sp].[cEt](G)[sp].[cEt](G)[sp].[moe](C)}$$$$V2.0”, the target mRNA inhibition (HepG2, 0.07 µM) was 81% and 78%.

Turning to “RNA1{[moe](C)[sp].[cEt](T)[sp].d(A)[sp].d(G)[sp].d(T)[sp].d(A)[sp].d(A)[sp].d(A)[sp].d(C)[sp].d(T)[sp].d(G)[sp].d(A)[sp].[cEt](G)[sp].[moe](C)[sp].[cEt](C)[sp].[moe](A)}$$$$V2.0”, the target mRNA inhibition (HepG2, 0.07 µM) was 74% and 76%.
